From ChEMBL document CHEMBL1153259, “Spiroepoxycyclohexadienone dimers: cytotoxic bisalkylating agents” (Bioorg Med Chem Lett, 1993) come the findings set out here.

Some results are limits rather than exact numbers.

Holding throughout (type): functional, cell-based
Assay [1] has as its system A549. The assay can be described thus: Compound was tested for cytotoxicity on A549 lung adenocarcinoma cell line using a proliferation assay (MTT reduction). The settings on record: Homo sapiens.
Assay [2] deals with L1210. The assay can be described thus: Compound was tested for cytotoxicity on L1210 leukemia cell line using a proliferation assay (MTT reduction). The settings on record: Mus musculus.
The test system of assay [3] is HT-29. As to the kind of experiment: Compound was tested for cytotoxicity on HT-29 colon cancer cell line using a proliferation assay (MTT reduction). The settings on record: Homo sapiens.
For assay [4], the system named is A549. The assay can be described thus: Compound was tested for cytotoxicity on A549 lung adenocarcinoma cell line using a proliferation assay (MTT reduction). The settings on record: Homo sapiens.

On to `O[C@@H]1C=CC2C3C=CC(C2[C@@]12CO2)[C@@]1(CO1)[C@@H]3O` (stereo partly specified), for which the IC50 in assay [1] stood at 31.5 µM; in assay [2], 22.5 µM; in assay [3], 17 µM.

Consider `O[C@@H]1CCC2C3C=CC(C2[C@@]12CO2)[C@@]1(CO1)[C@@H]3O` (stereo partly specified), for which the IC50 came to 18 µM in assay [1], 19.5 µM in assay [2] and 6 µM in assay [3].

Turning to `COC1=CC2C3C=CC(C2[C@@]2(CO2)C1=O)[C@@]1(CO1)C3=O` (stereo partly specified), the IC50 in assay [1] is 17.5 µM; in assay [2], > 36 µM; in assay [3] it was 5.8 µM.

`O=C1C2C=CC(C3C2C=CC(=O)[C@]32CO2)[C@@]12CO2` (stereo partly specified): the IC50 in assay [2] came to 0.18 µM; in assay [4] it was 0.75 µM; in assay [3], 0.3 µM.

Consider `COC1=CC2C(C3C=CC2(OC)C(=O)[C@]32CO2)[C@@]2(CO2)C1=O` (stereo partly specified), for which the IC50 in assay [1] was 1.2 µM; in assay [2], 1 µM; in assay [3] it was 3.6 µM.

For `O=C1C2C=CC(C3C2C2C/C(=N\Cc4ccccc4)[C@]3(O)CN2Cc2ccccc2)[C@@]12CO2` (stereo partly specified), the IC50 in assay [1] is > 28 µM; in assay [2] it was > 28 µM; in assay [3] it was 27 µM.

As to `COc1cccc2c1C(=O)c1c(O)c3c(c(O)c1C2=O)C[C@@](O)(C(=O)CO)C[C@@H]3O[C@H]1C[C@H](N)[C@H](O)[C@H](C)O1` [DOXORUBICIN], the values for the IC50 in assay [1], in assay [2] and in assay [3] were 0.1 µM, 0.04 µM and 0.12 µM, respectively.
